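Exposure lasted 48 hours, with cells grown in 96-well plates and compounds tested at five concentrations. GI50 = concentration required for 50% inhibition of growth.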 Active and inactive are the calls of the source. Rule as the data show it: active = GI50 up to about 1.1 µM and inactive = higher.
Assays:
Test in all cases: NCI-60 cell line screen, 48 h
SF-539 = system: SF-539
SNB-75 = system: SNB-75
MOLT-4 = system: MOLT-4
PC-3 = system: PC-3
SK-MEL-28 = system: SK-MEL-28
IGROV-1 = system: IGROV-1
HOP-92 = system: HOP-92
BT-549 = system: BT-549
Hs-578T = system: Hs-578T
HL-60 = system: HL-60
A549 = system: A549
NCI/ADR-RES = system: NCI/ADR-RES
MDA-N = system: MDA-N
RXF 393 = system: RXF 393
MDA-MB-231 = system: MDA-MB-231
KM12 = system: KM12
NCI-H522 = system: NCI-H522
786-0 = system: 786-0
UO-31 = system: UO-31
K562 = system: K562

Measured: GI50

CC(C)(C)c1cc(C2=NN(c3ccccc3)C(c3ccccc3)C2)cc(C(C)(C)C)c1O (stereo not given)
inactive: SF-539 > 100 µM | SNB-75 > 100 µM | MOLT-4 > 100 µM | PC-3 > 100 µM | SK-MEL-28 > 100 µM | IGROV-1 > 100 µM | HOP-92 > 100 µM | BT-549 > 100 µM | Hs-578T > 100 µM | HL-60 12.1 µM | A549 > 100 µM | NCI/ADR-RES > 100 µM | MDA-N > 100 µM | RXF 393 > 100 µM | MDA-MB-231 > 100 µM | KM12 > 100 µM | NCI-H522 > 100 µM | 786-0 > 100 µM | UO-31 > 100 µM | K562 > 100 µM

O=[N+]([O-])c1ccc2c(Nc3ccccc3-c3ccccc3Nc3c4ccccc4nc4cc([N+](=O)[O-])ccc34)c3ccccc3nc2c1
inactive: SF-539 4.59 µM | SNB-75 4.19 µM | MOLT-4 4.01 µM | PC-3 1.44 µM | SK-MEL-28 24.2 µM | IGROV-1 10.8 µM | HOP-92 3.44 µM | BT-549 1.16 µM | Hs-578T 2.47 µM | HL-60 2.68 µM | A549 6.07 µM | NCI/ADR-RES 7.41 µM | MDA-N 1.17 µM | RXF 393 1.52 µM | MDA-MB-231 2.31 µM | KM12 2.86 µM | NCI-H522 3.87 µM | 786-0 1.93 µM | UO-31 3.26 µM | K562 1.57 µM

Nc1nc(Cl)c(CO)c(NCC2(CO)CCC2)n1
inactive: SF-539 > 100 µM | SNB-75 > 100 µM | MOLT-4 > 100 µM | PC-3 88.7 µM | SK-MEL-28 > 100 µM | IGROV-1 > 100 µM | HOP-92 > 100 µM | BT-549 > 100 µM | Hs-578T > 100 µM | HL-60 > 100 µM | A549 > 100 µM | NCI/ADR-RES > 100 µM | MDA-N > 100 µM | RXF 393 > 100 µM | MDA-MB-231 > 100 µM | KM12 75.7 µM | NCI-H522 > 100 µM | 786-0 > 100 µM | UO-31 > 100 µM | K562 > 100 µM

CCOC(=O)c1c(C)n(-c2ccc(Cl)cc2)c2c1cc(O)c1[nH]c3c(c12)CCCC3
inactive: SF-539 42.5 µM | SNB-75 44 µM | MOLT-4 26.4 µM | PC-3 41 µM | SK-MEL-28 33.2 µM | IGROV-1 44.4 µM | HOP-92 38.5 µM | BT-549 52.7 µM | Hs-578T 22.5 µM | HL-60 34.6 µM | A549 > 100 µM | NCI/ADR-RES > 100 µM | MDA-N 35.7 µM | RXF 393 19.5 µM | MDA-MB-231 > 100 µM | KM12 29 µM | NCI-H522 24.3 µM | 786-0 > 100 µM | UO-31 > 100 µM | K562 41.3 µM

Cc1ccc(S(=O)(=O)Oc2ccc(OS(=O)(=O)c3ccc(C)cc3)c3c2C(=O)c2ccccc2C3=O)cc1
inactive: SF-539 33 µM | SNB-75 16.8 µM | MOLT-4 > 100 µM | PC-3 > 100 µM | SK-MEL-28 > 100 µM | IGROV-1 > 100 µM | HOP-92 > 100 µM | BT-549 > 100 µM | Hs-578T 38.7 µM | HL-60 > 100 µM | A549 > 100 µM | NCI/ADR-RES > 100 µM | MDA-N > 100 µM | RXF 393 23.6 µM | MDA-MB-231 66.7 µM | KM12 > 100 µM | NCI-H522 > 100 µM | 786-0 50.7 µM | UO-31 33.8 µM | K562 > 100 µM

Clc1ccccc1NN(Cc1ccncc1)c1ccccc1Cl
inactive: SF-539 18.2 µM | SNB-75 17.5 µM | MOLT-4 15.5 µM | PC-3 15 µM | SK-MEL-28 20.3 µM | IGROV-1 14.6 µM | HOP-92 4.6 µM | BT-549 19.1 µM | Hs-578T 18.2 µM | HL-60 17 µM | A549 12.5 µM | NCI/ADR-RES 13.8 µM | MDA-N 13.5 µM | RXF 393 16 µM | MDA-MB-231 13.6 µM | KM12 18 µM | NCI-H522 12.1 µM | 786-0 13.7 µM | UO-31 24.5 µM | K562 10.4 µM

N=C(N)SC1c2ccccc2-c2cc([N+](=O)[O-])ccc21 (stereo not given)
inactive: SF-539 3.96 µM | SNB-75 2.02 µM | MOLT-4 3.52 µM | PC-3 3.78 µM | SK-MEL-28 2.41 µM | IGROV-1 5.62 µM | HOP-92 13.7 µM | BT-549 6.05 µM | Hs-578T 3.1 µM | HL-60 2.61 µM | A549 4.33 µM | NCI/ADR-RES 3.01 µM | MDA-N 3 µM | RXF 393 3.5 µM | MDA-MB-231 6.5 µM | KM12 3.23 µM | NCI-H522 2.51 µM | 786-0 4.67 µM | UO-31 8.13 µM | K562 3.89 µM

Source: ChEMBL document CHEMBL1201862, “PubChem BioAssay data set” (2004)
